Experimental data published in ChEMBL document CHEMBL1126413, “Cumindysoside A, a novel cytotoxic trisnortriterpene glucoside with a 14, 18-cycloapoeuphane-type skeleton from Dysoxylum cumingianum” (1992).
Values after ≈ are worked out from the molar mass of the structure shown. Active and inactive are the calls of the source. No cut-off for these calls is given here.

Legend:
[1] = test system: HCT-8; assay: Dose required for in vitro cytotoxic activity against HCT-8 colon carcinoma cells at concentration of 10 ug/ml; NA is no cytotoxicity; assay type: functional, cell-based; conditions: Homo sapiens
[2] = Effective dose required for in vitro cytotoxic activity against TE-671 medulloblastoma tumor cells; assay type: functional; conditions: Homo sapiens, read-out: ED50 (the source's name)
[3] = Effective dose required for in vitro cytotoxic activity against RPMI-7951 melanoma tumor cells; assay type: functional; conditions: Homo sapiens, read-out: ED50 (the source's name)
[4] = test system: A549; assay: Dose required for in vitro cytotoxic activity against A-549 lung carcinoma cells at concentration of 10 ug/ml; NA is no cytotoxicity; assay type: functional, cell-based; conditions: Homo sapiens

C=C(C=O)[C@H](C)[C@@H]1CCC23CC12CC[C@@H]1[C@@]2(C)CC[C@@H](OC(C)=O)C(C)(C)[C@@H]2C[C@@H](O[C@@H]2O[C@H](COC(C)=O)[C@@H](O)[C@H](O)[C@H]2O)[C@]13C (some centres undefined)
Activity [1]: inactive
EC50 [2]: 2.74 µg/mL (≈ 4.15 µM)
EC50 [3]: 0.34 µg/mL (≈ 0.514 µM)
Activity [4]: inactive
